# According to article PMC10349806 (Nature Communications, 2023):
# Where “and” joins values, the source holds several entries; their conditions need not be identical. Equal entries are not always repeated.
# Biological target: PfCRT^Dd2 (Plasmodium falciparum, UniProt Q9N623, A220S/I356T/K76T/M74I/N326S/N75E/Q271E/R371I)
# Experiment: Drug uptake assay, X. laevis oocytes expressing PfCRT^Dd2
# Assay type: cell-based
# Settings: for v-1 pH 4.5 / v-1 pH 5.0 / v-1 pH 5.5 / v-1 pH 6.0: Lineweaver-Burk
# Experimental: Oocytes were obtained as described previously. Briefly, adult (>2 years old) female X. laevis frogs (NASCO) were anesthetized in a cooled solution of ethyl 3-amino benzoate methanesulfonate (0.1%, w/v), followed by a surgical removal of parts of the ovary. The ovary lobes were carefully dissected and small pieces of oocytes were incubated in Ca^2+-free ND96 buffer (96 mM NaCl, 2 mM KCl, 1 mM MgCl2 buffered with 5 mM HEPES/NaOH, pH 7.5) supplemented with collagenase D (0.1%, w/v; Roche), BSA (0.5%, w/v), and 9 mm Na2HPO4 at 18 °C for 14-16 h while gentle shaking. After incubation, the oocytes were carefully washed several times with ND96 buffer (96 mM NaCl, 2 mM KCl, 1.8 mM CaCl2, 1 mM MgCl2 buffered with 5 mM HEPES/NaOH, pH 7.5) supplemented with 100 mg l^−1 gentamycin). Defolliculated and healthy-looking stage V-VI oocytes were manually selected for RNA microinjection. The RNA was generated as following: The codon-optimized sequences of PfCRT variants were cloned into the pSP64T expression vector. After vector linearization using the restriction endonucleases BamHI or SalI (New England Biolabs), transcription was performed using the in vitro SP6 mMessage mMachine Kit (Ambion)[34]. The obtained RNA was kept at −80 °C and diluted with nuclease-free water to a concentration of 0.6 μg μl^−1. Precision-bore glass capillary tubes (3.5-inch glass capillaries; Drummond Scientific Co.) were pulled on a vertical puller (P-87 Flaming/Brown micropipette puller, Sutter Instrument Co.), graduated, and placed on a microinjector (Nanoject II Auto-Nanoliter Injector, Drummond Scientific Co.). 50 nl of nuclease-free water alone (control oocytes) or 50 nl of 0.6 μg μl^−1 RNA were injected under stereomicroscopic control. Injected oocytes were incubated for 46–72 h at 18 °C with twice-daily buffer changes before usage in experiments.
# Drug uptake assays were performed as described previously[21],[22],[24],[34]. […] The direction of radio-labeled drug transport is here from the mostly acidic extracellular solution (pH 4.5 or 6.0, as indicated) into the oocyte cytosol (pH ∼ 7.2), which corresponds to the efflux of drug from the acidic digestive vacuole (pH 5.2) into the parasite cytoplasm (pH 7.2). The topology of PfCRT in the oolemma is such that both the N- and C-terminus face the extracellular milieu[3],[22]. In the parasite, the N- and C-terminus face the lumen of the digestive vacuole. […] For determination of the amount of drug uptake for each oocyte, the reaction medium was removed and the oocytes were washed three times with 2 ml of ice-cold ND96 buffer. Each oocyte was individually transferred to a scintillation vial containing 5% sodium dodecyl sulfate (200 μl) for lysis. […] Oocytes that were injected with water instead of RNA were analyzed in parallel, representing the uptake of a drug by diffusion and/or endogenous permeation pathways. The resulting value represents the “background“ level of drug accumulation in oocytes (in-depth discussion in[22]). The specific PfCRT-mediated uptake was determined by subtracting the corresponding background value measured in water-injected oocytes from that of PfCRT-expressing oocytes. In all cases, at least three separate experiments were performed on oocytes from different frogs (biological replicate), and for each condition in an experiment, measurements were made from 10 oocytes per treatment. For pH 5.5, 6.0, and 6.5, ND96 was buffered with 5 mM MES/Tris base. For pH 4.5, 5 mM Homo-Pipes was used as a buffer and 5 mM HEPES for uptake at pH 7.0.
# Chain of PfCRT^Dd2 (Q9N623 whole entry A220S/I356T/K76T/M74I/N326S/N75E/Q271E/R371I): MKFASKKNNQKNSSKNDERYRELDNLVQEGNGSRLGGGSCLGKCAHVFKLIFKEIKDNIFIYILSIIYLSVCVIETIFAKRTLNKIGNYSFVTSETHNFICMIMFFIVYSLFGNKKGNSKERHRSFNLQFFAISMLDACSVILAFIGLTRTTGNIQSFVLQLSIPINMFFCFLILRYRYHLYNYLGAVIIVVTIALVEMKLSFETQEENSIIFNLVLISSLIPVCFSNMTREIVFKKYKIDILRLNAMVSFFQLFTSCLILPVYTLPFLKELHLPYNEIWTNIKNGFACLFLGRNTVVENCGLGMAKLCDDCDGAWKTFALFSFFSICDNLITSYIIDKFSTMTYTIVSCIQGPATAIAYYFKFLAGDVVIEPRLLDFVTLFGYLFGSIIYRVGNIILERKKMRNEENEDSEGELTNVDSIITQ
structure (smiles),measurement,setting,value
"CCN(CC)CCCC(C)Nc1ccnc2cc(Cl)ccc12 (centres unmarked) [CQ, chloroquine]",PfCRTDd2-mediated CQ transport activity,"100 µM CQ, time 0 min",0.00 pmol oocyte-1
same,PfCRTDd2-mediated CQ transport activity,"100 µM CQ, time 30 min",5.73 pmol oocyte-1
same,PfCRTDd2-mediated CQ transport activity,"100 µM CQ, time 60 min",8.29 pmol oocyte-1
same,PfCRTDd2-mediated CQ transport activity,"100 µM CQ, time 90 min",9.71 pmol oocyte-1
same,v-1 pH 4.5,100 µM CQ,0.19 (pmol oocyte-1 h-1)-1
same,v-1 pH 5.0,100 µM CQ,0.18 (pmol oocyte-1 h-1)-1
same,v-1 pH 5.5,100 µM CQ,0.13 (pmol oocyte-1 h-1)-1
same,v-1 pH 6.0,100 µM CQ,0.11 (pmol oocyte-1 h-1)-1
same,PfCRTDd2 transport activity,"200 µM CQ, pH 4.5, 60 min",7.21 pmol oocyte-1 h-1 and 7.32 pmol oocyte-1 h-1 and 8.24 pmol oocyte-1 h-1 and 6.30 pmol oocyte-1 h-1 and 7.78 pmol oocyte-1 h-1 and 6.41 pmol oocyte-1 h-1
same,PfCRTDd2 transport activity 200 µM CQ pH 4.5,"200 µM CQ, pH 4.5, individual replicates (Fig 4a)",7.32 pmol oocyte-1 h-1 and 8.24 pmol oocyte-1 h-1 and 6.30 pmol oocyte-1 h-1 and 7.78 pmol oocyte-1 h-1 and 6.41 pmol oocyte-1 h-1
same,PfCRTDd2 transport activity,"200 µM CQ, pH 5.0, 60 min",9.98 pmol oocyte-1 h-1
same,PfCRTDd2 transport activity 200 µM CQ pH 5.0,"200 µM CQ, pH 5.0, individual replicates (Fig 4a)",9.29 pmol oocyte-1 h-1 and 10.18 pmol oocyte-1 h-1 and 10.48 pmol oocyte-1 h-1
same,PfCRTDd2 transport activity,"200 µM CQ, pH 5.5, 60 min",10.75 pmol oocyte-1 h-1
same,PfCRTDd2 transport activity 200 µM CQ pH 5.5,"200 µM CQ, pH 5.5, individual replicates (Fig 4a)",11.07 pmol oocyte-1 h-1 and 10.25 pmol oocyte-1 h-1 and 11.13 pmol oocyte-1 h-1 and 10.55 pmol oocyte-1 h-1
same,PfCRTDd2 transport activity,"200 µM CQ, pH 6.0, 60 min",13.53 pmol oocyte-1 h-1 and 12.77 pmol oocyte-1 h-1 and 14.22 pmol oocyte-1 h-1 and 13.59 pmol oocyte-1 h-1
same,PfCRTDd2 transport activity 200 µM CQ pH 6.0,"200 µM CQ, pH 6.0, individual replicates (Fig 4a)",12.77 pmol oocyte-1 h-1 and 14.22 pmol oocyte-1 h-1 and 13.59 pmol oocyte-1 h-1
same,PfCRTDd2-mediated CQ transport activity,"200 µM CQ, time 0 min",0.00 pmol oocyte-1
same,PfCRTDd2-mediated CQ transport activity,"200 µM CQ, time 30 min",9.39 pmol oocyte-1
same,PfCRTDd2-mediated CQ transport activity,"200 µM CQ, time 60 min",15.25 pmol oocyte-1
same,PfCRTDd2-mediated CQ transport activity,"200 µM CQ, time 90 min",18.81 pmol oocyte-1
same,v-1 pH 4.5,200 µM CQ,0.14 (pmol oocyte-1 h-1)-1
same,v-1 pH 5.0,200 µM CQ,0.10 (pmol oocyte-1 h-1)-1
same,v-1 pH 5.5,200 µM CQ,0.09 (pmol oocyte-1 h-1)-1
same,v-1 pH 6.0,200 µM CQ,0.0739 (pmol oocyte-1 h-1)-1
same,PfCRTDd2 transport activity,"300 µM CQ, pH 4.5, 60 min",8.79 pmol oocyte-1 h-1 and 8.53 pmol oocyte-1 h-1 and 10.77 pmol oocyte-1 h-1 and 6.50 pmol oocyte-1 h-1 and 9.34 pmol oocyte-1 h-1
same,PfCRTDd2 transport activity 300 µM CQ pH 4.5,"300 µM CQ, pH 4.5, individual replicates (Fig 4a)",8.53 pmol oocyte-1 h-1 and 10.77 pmol oocyte-1 h-1 and 6.50 pmol oocyte-1 h-1 and 9.34 pmol oocyte-1 h-1
same,PfCRTDd2 transport activity,"300 µM CQ, pH 5.0, 60 min",10.68 pmol oocyte-1 h-1
same,PfCRTDd2 transport activity 300 µM CQ pH 5.0,"300 µM CQ, pH 5.0, individual replicates (Fig 4a)",10.67 pmol oocyte-1 h-1 and 9.04 pmol oocyte-1 h-1 and 12.33 pmol oocyte-1 h-1
same,PfCRTDd2 transport activity,"300 µM CQ, pH 5.5, 60 min",12.81 pmol oocyte-1 h-1
same,PfCRTDd2 transport activity 300 µM CQ pH 5.5,"300 µM CQ, pH 5.5, individual replicates (Fig 4a)",13.73 pmol oocyte-1 h-1 and 12.01 pmol oocyte-1 h-1 and 12.69 pmol oocyte-1 h-1
same,PfCRTDd2 transport activity,"300 µM CQ, pH 6.0, 60 min",15.42 pmol oocyte-1 h-1 and 15.31 pmol oocyte-1 h-1 and 16.86 pmol oocyte-1 h-1 and 14.10 pmol oocyte-1 h-1
same,PfCRTDd2 transport activity 300 µM CQ pH 6.0,"300 µM CQ, pH 6.0, individual replicates (Fig 4a)",15.31 pmol oocyte-1 h-1 and 16.86 pmol oocyte-1 h-1 and 14.10 pmol oocyte-1 h-1
same,PfCRTDd2-mediated CQ transport activity,"300 µM CQ, time 0 min",0.00 pmol oocyte-1
same,PfCRTDd2-mediated CQ transport activity,"300 µM CQ, time 30 min",9.78 pmol oocyte-1
same,PfCRTDd2-mediated CQ transport activity,"300 µM CQ, time 60 min",14.63 pmol oocyte-1
